Where a SMILES comes first, the peptide text is derived from it.
Assays:
[1] = Circular dichroism over incubation; format: physicochemical; conditions: 1.0 mg/mL in PBS pH 7.4, 37 °C with agitation, up to 14 days; centrifuged clear solution, far-UV 195-250 nm
Description: Circular dichroism spectra were recorded on a Jasco J-815 spectropolarimeter (Jasco, Victoria, BC, Canada). Far-UV spectra (195–250 nm) were registered for all peptides dissolved in PBS pH 7.4 at a concentration of 1.0 mg/mL and incubated at 37 °C with agitation. Spectra were recorded before and after 1,2, 3, 7, 10 and 14 days of incubation. All spectra were corrected for the buffer signal. The CD spectra were recorded three times, using a 0.2 mm cell.

[2] = Thioflavin T fluorescence assay; format: physicochemical; conditions: 1.0 mg/mL in PBS pH 7.4, 37 °C, orbital shaking; ThT excitation 420 nm, emission 482 nm
Description: (§1) All peptides were dissolved in Eppendorf Low Retention Tubes in 1.0 mL of PBS pH 7.4. The concentration of the solutions of peptides was 1.0 mg/mL. The peptides were incubated at 37 °C with constant orbital shaking. Aliquots for the evaluation of the fibrillization process were taken before incubation and after 1, 2, 3, 6, 14, and 21 days or only after 7 days, depending on the experiments.
Ten microliters of peptide solution incubated under fibrillization conditions (see Fibril preparation) were mixed with 10 µL of 1.5 mM ThT in water and 90 µL of PBS pH 7.4. The fluorescence was measured on a Tecan Infinite 200Pro (Tecan Group Ltd., Männedorf, Switzerland) spectrofluorometer in 96-well plates (Costar Black®), with excitation wavelength set at 420 nm and emission in the range of 455 to 600 nm.

[3] = Transmission electron microscopy of fibrils; format: physicochemical; conditions: 1.0 mg/mL in PBS pH 7.4, TEM, uranyl acetate stain
Description: as §1
Peptide samples (5 µL) were applied on a glow-discharged carbon-coated copper grid (400 mesh). After 1 min of adsorption, excess liquid was removed using filter paper, and the samples were stained with 2% (v/v) aqueous uranyl acetate. The samples were examined with a TECNAI SPIRIT BIO TWIN FEI (FEI Company, Hillsboro, OR, USA) at 120 kV, with nominal magnifications between 11,500 and 39,000. The assay was performed for samples before (after dissolution) and after 3 days of incubation.

dorsal skin wounds [4] = experiment: Wound healing in a dorsal skin excision model in mice; format: in vivo, BALB/c female mice
Text: Eight-week-old BALB/c female mice were used for experiments. All experimental procedures were approved by the Local Ethics Committee in Bydgoszcz (Approval No. 49/2016). The mice were anesthetized with inhaled 2–5% isoflurane. The skin on the back was shaved and disinfected. The skin was folded and raised cranially and caudally along the spine. The mouse was then placed in a lateral position, and the folded skin was pierced with a 6.0 mm diameter biopsy punch, resulting in the formation of two excisional, symmetrical wounds on the back of the mouse. Before peptides administration, mice were randomly divided into treatment and control groups comprising six individuals. A total of 10 µL of 1 mg/mL peptide solution suspended in saline or fibrils solution suspended in PBS at the same concentration, was applied to each wound. Control groups received saline only. The wounds were covered with transparent Tegaderm film and an adhesive plaster was wrapped around the mouse torso. During the first week of the experiment, the wounds were treated with the peptide daily for five consecutive days along with replacement of the dressing. During the second week of the experiment, the dressing was replaced every other day with no further stimulation. For fibrils the solution was administered once after wounding and the dressing was replaced every two days. At the beginning of the third week, the dressing was removed. To measure the wound area, a ruler was placed next to the injury site, and the wound was photographed. Wound areas were calculated using ImageJ software.

dorsal skin wounds [5] = experiment: Histological analysis of healed skin (Masson's trichrome); format: in vivo, BALB/c female mice; conditions: skin sampled day 18 after injury
Description: Mice were euthanized on day 18 after the injury. Skin from their backs was sampled and stored in formalin. Samples were then embedded in paraffin, cut into 5 µm sections and stained with Masson’s trichrome staining (light green for control and FC-GHK samples and aniline blue for the FC peptide and both fibrillated peptides). Stained sections were evaluated using a light microscope.

[6] = non-fibrillated peptide, 1 mg/mL in saline, five daily applications

CC[C@H](C)[C@H](NC(=O)CNC(=O)[C@H](C)NC(=O)[C@H](CCC(N)=O)NC(=O)CNC(=O)CNC(=O)CNC(=O)[C@@H](NC(=O)[C@@H]1CCCN1C(=O)[C@H](C)NC(=O)[C@H](C)NC(=O)CNC(=O)CNC(=O)CNC(=O)[C@H](CCCCN)NC(=O)[C@H](Cc1c[nH]cn1)NC(=O)CNC(=O)[C@H](CCCCN)NC(C)=O)C(C)C)C(=O)N[C@H](C(=O)N[C@H](C(N)=O)C(C)C)C(C)C [FC-KGHK] (Ac-KGHKGGGAAPVGGGQAGIVV-NH2)
secondary structure by CD [1]: disordered structure
time course of ThT fluorescence increase (fibrillization) [2]: required at least three days of incubation
fibril thickness (TEM) [3]: 10–12 nm

CC[C@H](C)[C@H](NC(=O)CNC(=O)[C@H](C)NC(=O)[C@H](CCC(N)=O)NC(=O)CNC(=O)CNC(=O)CNC(=O)[C@@H](NC(=O)[C@@H]1CCCN1C(=O)[C@H](C)NC(=O)[C@H](C)NC(=O)CNC(=O)CNC(=O)CNC(=O)[C@H](CCCCN)NC(=O)[C@H](Cc1c[nH]cn1)NC(=O)CNC(C)=O)C(C)C)C(=O)N[C@H](C(=O)N[C@H](C(N)=O)C(C)C)C(C)C [FC-GHK] (Ac-GHKGGGAAPVGGGQAGIVV-NH2)
secondary structure by CD [1]: disordered structure
wound closure rate compared to control (dorsal skin wounds [4]; fibrillated peptide, 10 µL of 1 mg/mL in PBS per wound, administered once, n = 16 wounds): the difference in wound closure rate could be observed on day 4 post-injury without statistical significance
wound closure and scars of FC-GHK compared with FC and control (dorsal skin wounds [4]; [6]): faster wound closure than for the FC peptide and significantly smaller scars compared to the control group
wound epithelialization compared with the control (dorsal skin wounds [4]; [6]): increased epithelialization on the second day
wound state on day 14 post-injury (dorsal skin wounds [4]; [6]): closed entirely
wound closure compared to the control group (dorsal skin wounds [4]; non-fibrillated peptide, 10 µL of 1 mg/mL in saline per wound, five daily applications, n = 12 wounds): significantly and consistently accelerated from day 2 till day 14
muscle cell growth in wound area (histology) (dorsal skin wounds [5]; fibrillated peptide): No such cell growth was present
muscle cell layer in restored tissue (histology) (dorsal skin wounds [5]; non-fibrillated peptide): modest reconstruction of the muscle cell layer
time course of ThT fluorescence increase (fibrillization) [2]: effective sample fibrilization during the first two days of incubation

From paper PMC8067766 (International Journal of Molecular Sciences, 2021)
